For four compounds, IC50 and tumor growth results are on record in publication PMC12298539, “Applying Unbiased, Functional Criteria Allows Selection of Novel Cyclic Peptides for Effective Targeted Drug Delivery to Malignant Prostate Cancer Cells” (Pharmaceutics, 2025).

The structures appear in SMILES notation.

For one experiment, the system named is PC3. The experiment in a line: Growth inhibition IC50, parent line. It is filed as cell-based. To be noted: Homo sapiens, PC-3. Here is the method:
(§1) PrC cell lines resistant to Estramustine (ESM) were developed as the clinical use of this drug induces significant side effects and drug resistance. The procedure of Mohr was used as described in the Supplementary Information.
(§2) Supplementary Information
(§3) Development of drug resistant cell lines
(§4) Cells were seeded in 3 flasks. […]
(§5) parent cell line was calculated. […]
(§6) to the drug within 2–4 weeks.
(§7) Table S1: IC50 values for parent and Estramustine-resistant prostate cancer cell lines are also multidrug re-sistant to Camptothecin and Docetaxel. Drugs
(§8) Estramustine Camptothecin Docetaxel […]

In another experiment the test system is DU145. The experiment in a line: Growth inhibition IC50, parent line. It is filed as cell-based. To be noted: Homo sapiens, DU-145. Here is the method: as §1, §2, §3, §4, §5, §6, §7, §8
Another experiment deals with 22RV1. Kind of experiment: Growth inhibition IC50, parent line. It is filed as cell-based. To be noted: Homo sapiens; 22RV1 parent line. As for the experimental part:
as §1, §2, §3, §4, §5, §6, §7, §8

Experiment [1] deals with Estramustine-resistant 22RV1. The experiment in a line: Growth inhibition IC50, Estramustine-resistant line. It is filed as cell-based. To be noted: Homo sapiens; 22RV1 Estramustine-resistant line. Here is the method: as §1, §2, §3, §4, §5, §6, §7, §8
The test system of experiment [2] is Estramustine-resistant DU145. Described as above. It is filed as cell-based. To be noted: Homo sapiens, DU-145. Here is the method: as §1, §2, §3, §4, §5, §6, §7, §8
For experiment [3], the system named is Estramustine-resistant PC3. The description is as above. It is filed as cell-based. The settings on record: Homo sapiens. Here is the method:
as §1, §2, §3, §4, §5, §6, §7, §8

The test system of another experiment is PrC cell lines. Kind of experiment: Dose-response of PrC cell lines to ESM. It is filed as cell-based. To be noted: Homo sapiens; range over the PrC cell lines, Figure S2; read-out: IC50s for ESM. As for the experimental part:
as §1
ESM-resistant lines developed following more than 6 months of exposure to the drug.
as §2, §3
Cells were seeded in 3 flasks.
parent cell line was calculated.
as §6

A further experiment has as its system PC3 tumors. The experiment in a line: Xenograft anti-tumor efficacy. It is filed as in vivo, athymic nu/nu mice. To be noted: 5 mg/kg, tail vein, twice weekly for four weeks, n = 5. As for the experimental part: As described above, a xenograft tumor model was established by injecting mice with PC3 cells. Tumor growth was monitored regularly, and mice were randomized into one of four groups (n = 5 per group) when their tumor volume reached approximately 140 mm^3 (approx. day 16 post-injection) so as to ensure the equal distribution of tumor burden among the groups. The mice were treated twice weekly for four weeks via tail vein injection as follows. Group 1 (Control) received vehicle only; Group 2 (free SN-38) received SN38 at a dose of 5 mg/kg; Group 3 (PDC 10 mg/kg) received PrC10-SN38 at a dose of 10 mg/kg; Group 4 (PDC 20 mg/kg) received PrC10-SN38 at a dose of 20 mg/kg. Tumor volume was measured regularly until day 44 from the initiation of treatment, after which all mice were euthanized via CO2 inhalation.

Turning to `CC[C@@]1(O)C(=O)OCc2c1cc1n(c2=O)Cc2cc3ccccc3nc2-1` [Camptothecin], the IC50 in the experiment on PC3 came out at 45 nM; in the experiment with DU145, 10 nM; with 22RV1 it was 7 nM; in experiment [1], 23 nM; in experiment [2], 100 nM; in experiment [3], 200 nM.

For `CC(=O)O[C@@]12CO[C@@H]1C[C@H](O)[C@@]1(C)C(=O)[C@H](O)C3=C(C)[C@@H](OC(=O)[C@H](O)[C@@H](NC(=O)OC(C)(C)C)c4ccccc4)C[C@@](O)([C@@H](OC(=O)c4ccccc4)[C@H]21)C3(C)C` [Docetaxel], the IC50 with PC3 is 4 nM; in the experiment with DU145 it was 3 nM; in the experiment on 22RV1, 3 nM; in experiment [1], 4 nM; in experiment [2] it was 5 nM; in experiment [3], 10 nM.

As for `C[C@]12CC[C@@H]3c4ccc(OC(=O)N(CCCl)CCCl)cc4CC[C@H]3[C@@H]1CC[C@@H]2O` [Estramustine], the IC50 stood at 10000 nM in the experiment on PC3; 8000 nM in the experiment on DU145; 8000 nM in the experiment on 22RV1; 30000 nM in experiment [1]; 8000 nM in experiment [2]; 24000 nM in experiment [3]. Further, the IC50 in the experiment with PrC cell lines is 1400 to 1750 nM.

Consider `CCc1c2c(nc3ccc(O)cc13)-c1cc3c(c(=O)n1C2)COC(=O)[C@]3(O)CC` [free SN-38, SN-38], for which the tumor growth result in the experiment with PC3 tumors is on record as “did not inhibit tumor growth”.
